In publication PMC5354938, “Spleen cells from young but not old immunized mice eradicate large established cancers” (Clinical cancer research : an official journal of the …, 2012) one finds IC50 data, which are given here for four sequences.

Experiment [1] deals with T1, H2-K^b (Mus musculus, UniProt P01901).
T1 construct: made in house
T1 sequence (P01901 22-369): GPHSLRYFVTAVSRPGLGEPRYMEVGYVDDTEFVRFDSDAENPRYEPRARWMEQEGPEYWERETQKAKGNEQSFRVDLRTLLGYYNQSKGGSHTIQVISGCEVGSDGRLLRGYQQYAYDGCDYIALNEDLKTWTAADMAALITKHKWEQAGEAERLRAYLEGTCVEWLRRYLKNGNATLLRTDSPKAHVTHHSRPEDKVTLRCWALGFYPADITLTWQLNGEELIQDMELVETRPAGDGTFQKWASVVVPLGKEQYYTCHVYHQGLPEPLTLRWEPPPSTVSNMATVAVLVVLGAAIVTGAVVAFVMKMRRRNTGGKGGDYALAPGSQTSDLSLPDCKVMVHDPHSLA
T1 sequence (P01887 21-119 partner): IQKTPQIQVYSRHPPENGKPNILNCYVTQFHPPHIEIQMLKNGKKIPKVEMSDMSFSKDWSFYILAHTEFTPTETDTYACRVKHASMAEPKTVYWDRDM
Put plainly: MHC peptide binding assay, purified H2-K^b. The procedure:
MHC purification, and quantitative assays to measure the binding affinity of peptides to purified H2-K^b, H2-D^b, and HLA-A*0201 molecules were performed as previously described ([49], [50]).

The target in experiment [2] is T1, H2-K^b. The note with it: MHC K^b; geometric mean of 5 or more experiments; Published in ref [19]; read-out: Affinity of peptide for MHC (IC50); cited from earlier work.
Experiment [3] has as its target H2-D^b (Mus musculus, UniProt P01899). Particulars: MHC D^b; geometric mean of 5 or more experiments; Published in ref [19]; read-out: Affinity of peptide for MHC (IC50); cited from earlier work.
Where [4] appears, read: Affinity of peptide for MHC (IC50), MHC K^b, purified H2-K^b, geometric mean of 5 or more experiments.

Read-outs that look alike come from different tables or passages of the source. Ends that are not written are not given here. Where only a bound is given, the exact number is not on record here.

H2-D^b, sequence (P01899 whole entry, looked up): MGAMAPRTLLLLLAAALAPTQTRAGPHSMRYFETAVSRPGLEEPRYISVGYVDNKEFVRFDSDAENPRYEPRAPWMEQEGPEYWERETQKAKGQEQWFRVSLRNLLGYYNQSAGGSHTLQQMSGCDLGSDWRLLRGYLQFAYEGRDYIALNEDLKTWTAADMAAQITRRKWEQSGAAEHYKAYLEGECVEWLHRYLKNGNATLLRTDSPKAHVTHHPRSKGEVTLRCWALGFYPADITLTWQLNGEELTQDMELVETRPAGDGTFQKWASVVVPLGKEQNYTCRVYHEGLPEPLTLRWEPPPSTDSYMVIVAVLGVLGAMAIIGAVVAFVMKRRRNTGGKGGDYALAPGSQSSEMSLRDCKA

SNFVFAGI [mp68 (547-554, 5F)]: the IC50 is 0.48 nM in experiment [1] (setting [4]) and below 1 nM in experiment [1] (binding to MHC Class I molecules with very high affinity (bound), discussion statement, very high affinity).

In turn, SNFVSAGI [p68 (547-554)] registered an IC50 in experiment [1] (setting [4]) of 22 nM. With YTLIYRQL [A6L (265-272)], the IC50 in experiment [2] is 6 nM.

As for IGMFNLTFI [A23R (297-305)], the IC50 in experiment [3] was 0.34 nM.
